Data on four compounds can be found in patent US7833977B2, “Use of L-Carnitine as stabilizing agent of proteins” (Sigma-Tau Industrie Farmaceutiche Riunite S.p.A., priority 2000, dated 2010).

The subject of one test is lens crystallins. Particulars: Swamy-Mruthinti and Carter 1999; cited from earlier work.
Test [1] relates to α-crystallin. The experiment in a line: Chaperone-like activity of α-crystallin from treated lenses (heat-induced βL-crystallin aggregation, light scattering at 360 nm). The format is biochemical, rat. The following applies: 100 or 200 μg α-crystallin + 200 μg βL-crystallin; 55° C. or 58° C. As for the experimental part: The following experiments were performed essentially as described elsewhere (Horwitz, J. (1992) Proc Natl Acad Sci USA. 89, 10449-10453). The chaperone-like activity of α-crystallin from control and H2O2±L-carnitine treated lenses was determined by heat denaturation studies. The extent to which the unmodified or modified α-crystallin preparation protected βL-crystallin (used as the target protein) from heat-induced denaturation and aggregation was assessed as follows: 100 μg or 200 μg of α-crystallin were added to 200 μg of βL-crystallin in a 1.5-ml cuvette and made up to a final volume of 1 ml with 50 mM phosphate buffer, pH 7.0. The cuvette was placed in a temperature-regulated cell holder attached to a UV spectrophotometer. Light scattering due to protein denaturation and aggregation was monitored at. 360 nm absorbance for 3,000 s at 55° C. or for 1,800 s at 58° C.
The chaperone properties of the purified water-soluble α-crystallin were determined by crystallin (target protein) aggregation assay. Characteristically, βL-crystallin aggregates at elevated temperatures. The addition of α-crystallin either prevents or decreases the heat-induced aggregation of βL-crystallin, which is measured by light scattering at 360 nm. Since the ratio of α to β determines the degree of protection against heat-induced aggregation, we used 100 μg or 200 μg of α-crystallin and 200 μg of βL-crystallin. […]

Test [2] relates to α-crystallin. The experiment in a line: Tryptophan fluorescence of α-crystallin fractions from treated lenses. Details: species or system rat. Particulars: excitation 295 nm, emission 330 nm. From the text:
The loss of-protein tryptophan fluorescence, an indicator of tryptophan oxidation, seems to be a marker of crystallin integrity. We therefore measured-tryptophan fluorescence in lens crystallin (Perkin-Elmer 650-40 spectrophotometer) according to a previously described method (Jones, R. H. V., and Hothersall, J. S. (1993), Exp Eye Res 57, 783-790). The excitation wavelength was set to 295 nm, and the fluorescence emission was detected at 330 nm.

In test [3] the test system is α-crystallin. The experiment in a line: GFAP gel forming assay (falling ball viscosimetry) with α-crystallin from treated lenses. Format: biochemical, rat. Particulars: α-crystallin from H2O2 ± L-carnitine-treated lenses; 37° C., 1 h. An excerpt:
The sedimentation assay devised by Nicholl and Quinlan (Nicholl, I. D., and Quinlan, R. A. (1994), EMBO J 13, 945-953) was used to assess α-crystallin-induced inhibition of intermediate filament assembly. Purified porcine glial fibrillary acidic: protein (GFAP) was used for these studies; it was purified from porcine spinal cord by axonal flotation as described previously (Pemg, M. D., et al (1999), J Cell Sci. 112, 2099-2112, MacLean-Fletcher, S., and Pollard, T. D. (1980), Biochem Biophys Res Commun 96, 18-27). The gel formation assay was based on a method used to monitor actin binding protein activity by falling ball viscometry (Pemg, M. D., et al (1999), J Cell Sci. 112, 2099-2112). α-Crystallins were mixed with GFAP in 8 M urea, 20 mM Tris-HCI, pH 8.0, 5 mM EDTA, 25 mM 2-mercaptoethanol and then stepwise dialyzed in 10 mM Tris-HCI, pH 8.0, 25 mM 2-mercaptoethanol. Assembly of the GFAP intermediate filaments, in the presence or absence of α-crystallin, was induced by the addition of a 20-fold concentrated buffer to give a final concentration of 100 mM imidazole-HCI, pH 6.8, 0.5 mM DTT. A 100-μl aliquot of sample was loaded into a glass tube and used for the viscosity assay. The tube was then immersed in a 37° C. water bath for 1 h before the gel formation assay. A ball was then placed into the tube, and the ability of the solution to support the ball was monitored. […]

A further test deals with rat lenses. The experiment in a line: Rat lens organ culture exposed to H2O2 with or without L-carnitine. Format: cell-based, Sprague-Dawley rats. The following applies: after 24 h incubation with H2O2 ± L-carnitine. As for the experimental part: Four-month-old Sprague-Dawley rats were anesthesized with 5 mg/kg xylazine and 65 mg/kg ketamine, and decapitated. Immediately after, eyes were enucleated, extracted and placed in 2 ml of modified TC-199 medium. Lens integrity was assessed by measuring protein leached into the medium after 30-60 min of culture; damaged lenses were discarded. One lens of each pair was placed in culture medium with no H2O2 and used as a control. […] The controlateral lens of each pair was placed in medium and, after equilibration under 5% CO2 at 37° C., was exposed to 500 μM H2O2 in the absence or presence of 300 μM L-carnitine. After 24 h of incubation, morphological characteristics and changes were recorded, and the lenses were photographed. The incubated lenses were rinsed with saline solution, blotted on filter paper, weighed, and then immediately processed for biochemical analysis. To determine lactate dehydrogenase (LDH) leakage, lenses were incubated individually in each different medium, and the medium was harvested daily and saved for LDH analysis.
Decapsulated lenses were homogenized with disposable pestles and then sonicated in extract buffer (20 mM HEPES, 0.2 mM EDTA, 0.5 mM dithiothreitol, 450 mM NaCl, 25% glycerol, […] leupeptin, 0.5 μg/ml protinin, 0.5 mM phenylmethanesulfonyl fluoride) on ice. Aliquots of the homogenate from each of the incubated lenses were removed for GSH and L-carnitine analysis. The remainder was centrifuged for 25 min at 20,000×g to separate the supernatant from the pellet. The pellet was washed with 1.0 ml buffer and dried under nitrogen. This fraction was designated “water-insoluble fraction”. The supernatant fraction was dialyzed twice against 3 ml of 0.025 mol/l phosphate buffer, pH 7.4 for 48 h and lyophilized. This fraction was designated “water-soluble” fraction. The water-soluble and water-insoluble fractions were delipidated with 3.0 ml chloroform:methanol (2:1) for 16 h under shaking followed by centrifugation at 2,000 g for 5 min.
The water-insoluble proteins were suspended in 0.2 M N-ethylmorpholine acetate (pH 8.1). An aliquot (10%) was used to quantitate the amount of total protein. Samples were digested by the sequential addition of proteolytic enzymes (collagenase, pronase, aminopeptidase and carboxypeptidase A, carboxypeptidase B and carboxypeptidase y), directly to the reaction mixture at 37° C. in the presence of 0.02% sodium azide. After enzymatic digestion, the free N-(γ-glutamyl)lysine isopeptide cross-link was resolved by HPLC and quantitated by amino acid analysis (Hohl, D., et al (1991), J Biol Chem. 266, 6626-6636). In a related set of experiments, the isopeptide content of lenses was determined without prior extraction. […]

“Also recorded” adds a separate entry of the source.

Take `CC(=O)Oc1ccccc1C(=O)O` [acetyl salicylic acid]: the “Effect on in vitro glycation of lens crystallins” value (shortened to “Effect on in vitro glycation”) with lens crystallins is reported as “decreased crystallin glycation”.

On to `OO` [H2O2], for which the “Capacity of α-crystallin to prevent heat-induced aggregation of βL-crystallin” value in the test with α-crystallin [1] is recorded as “significant decrease”. Also, the “Loss of tryptophan fluorescence in α-crystallin” value in the test on α-crystallin [2] amounted to 2.7 fold. For the same compound, in the test on α-crystallin [3], the “Inhibition of GFAP gel formation by α-crystallin” value is given as “did not affect gel formation”. In addition, in the test with rat lenses, the “Lens clarity / opacification” value was “became opaque”; the “Lens morphology by optical and electron microscopy” value was “Ballooning, liquefaction and various degrees of fiber swelling”.

Turning to `C[N+](C)(C)C[C@H](O)CC(=O)[O-]` [L-carnitine], the “Capacity of α-crystallin to prevent heat-induced aggregation of βL-crystallin” value in the test on α-crystallin [1] is “prevented this negative effect”. Besides, the “Loss of tryptophan fluorescence in α-crystallin” value in the test with α-crystallin [2] is “restored the basal value”. Besides, in the test on α-crystallin [3], the “Inhibition of GFAP gel formation by α-crystallin” value was “blocked GFAP gel formation to the same extent as α-crystallin from control lenses”. In addition, in the test on lens crystallins, the “Effect on in vitro glycation” value is given as “ineffective”. In addition, in the test with rat lenses, the “Lens clarity / opacification” value is on record as “remained clear; also recorded: remained transparent”; the “Lens morphology by optical and electron microscopy” value was “cell shape was unaltered and that fiber cells were intact”.

In the case of `CC(=O)O[C@H](CC(=O)[O-])C[N+](C)(C)C` [acetyl L-carnitine], in the test on lens crystallins, the “Effect on in vitro glycation” value was “decreased crystallin glycation”.
